Assay results published in publication PMC8536644, “Enigmatic mechanism of the N-vinylpyrrolidone hepatocarcinogenicity in the rat” (Archives of Toxicology, 2021).
Several values for one entry are separate records, joined by “and”; a condition that tells them apart may be missing. Equal entries are not always repeated.

How the values were obtained:
[1] = tested on: polychromatic erythrocytes of rat bone marrow; assay: Micronucleus test in rat bone marrow (OECD 474)
Protocol: 13-mm filter disks with a pore size of 8 µm were placed on the bottom of 5-mL plastic syringes. Approximately 500 mg of a mixture consisting of equal parts microcrystalline cellulose (Sigmacell®, Typ 50) and alpha-cellulose fibers was added up to the 2-mL mark.
Bone marrow preparation was performed according to published methods (Romagna and Staniforth [1989]; Salamone et al. [1980]). The soft tissue was removed from the femora and the epiphyses were cut off. The bone marrow was rinsed off the diaphyses with approximately 3 mL 37 °C-warm fetal calf serum (FCS) (Biochrom, Berlin, Germany) per femur, placed on the above-described cellulose column and eluted with 3 mL of Hank's Balanced Salt Solution (HBSS) (Biochrom, Berlin, Germany) (with Ca^2+ und Mg^2+). The eluate was centrifuged at 300 g for 5 min and the pellet was suspended in […] FCS. From this suspension three portions per femur were individually placed on slides, air-dried and then stained for 4 min in May-Grunwald solution 1 (Merck, Darmstadt, Germany), followed by 4 min in May–Grunwald solution 2 (May-Grunwald solution 1 diluted 1:1 with aqua bidest.), rinsed in aqua bidest and then stained with Giemsa solution (7.5% dilution derived from Giemsa obtained from Merck, Darmstadt, Germany) for 15 min. Subsequently, the slides were washed twice with aqua bidest, then dried, cleared in xylene and covered with Corbit-Balsam (I. Hecht, Kiel-Hasse, Germany).
2000 polychromatic erythrocytes (PCE) per animal (1000 per slide) were evaluated at 1000-fold magnification under immersion oil for the presence/absence of large and small micronuclei as well as the proportion of PCE among the total erythrocytes. Statistical significance of differences between treated versus untreated groups was evaluated by the one-sided Wilcoxon test (using the program MUKERN). The result is regarded as positive when the following criteria are fulfilled: 1.
2000 PCEs were analyzed for micronuclei per animal.

rat liver cells = assay: Comet assay, conventional (no FPG), liver; conditions: for Increase of the TI vs vehicle control: p ≤ 0.01; for Hedgehogs/100 cells (mean ± SD) / TI (%) (mean ± SD) / TI (%), mean of medians from 2 slides: liver; for TI (%), mean of medians from 2 slides: individual animals
Protocol: Animals were anesthetized by 3.5% isoflurane (approximately 3 min, evaporator Dräger Vapor 19.3) and then killed by cervical dislocation. The liver was removed and its left lateral lobe used for the Comet assay. The remainder of the liver was washed in saline and then in two aliquots shock frozen in liquid nitrogen and stored at − 80 °C for later examinations. Subsequently the lung was removed from the dead animal. Its left lobe was used for the Comet assay and the remainder treated as described above for the liver. Thereafter the femora were removed for the preparation of the bone marrow.
The Comet assay was performed under alkaline conditions according to the principles described by Singh et al. ([1988]) and Tice et al. ([2000]).
Liver and lung cells were obtained essentially as described by Hartmann et al. ([2004]) and by the Japanese Center for the Validation of Alternative Methods (JaCVAM [2009]). Single cells were obtained within 1 h after killing of the animals in order to minimize DNA damage during the preparation.
The organ parts (see above) were washed in mincing buffer (50 mM EDTA in HBSS [without Ca^2+ and Mg^2+] pH 7.5: DMSO 9:1 (v/v), the latter added shortly before use, stored at 4 °C), cut into 1 to 2-mm pieces in ice-cold mincing buffer and transferred to a cell sieve with 70-µm pores. The viability of the cell suspension was evaluated by the Trypan Blue Assay (Strober [2001]).
100 µL of the obtained cell suspension was mixed at 37 °C with 900 µL Low Melting Agarose (LMA) (0.7% agarose in phosphate-buffered saline [PBS] [Biochrom, Berlin, Germany] without Ca^2+ and Mg^2+). 100 µL of this mixture was transferred to a slide, which had been coated with Normal Melting Agarose (NMA) (0.6% agarose in PBS without Ca^2+ and Mg^2+). The slides were protected with a cover slip and the agarose was hardened at approximately 4 °C. The cover slips were then removed and the slides put over night at 4 °C into lysis buffer (2.5 M NaCl, 125 mM NaOH, 127 mM EDTA, 10 mM Tris/NaOH, pH 10; 1% Triton X-100 and 10% DMSO (v/v), the latter two added before use) in order to lyse the cell membrane, nuclear membrane and remove the histone.
The then following procedures were performed in a shaded room to minimize UV-mediated DNA damage during the procedures.
Remaining lysis buffer or FPG buffer was removed by immersing/washing the slides in PBS (without Ca^2+ and Mg^2+).
The slides were then placed into the electrophoresis chamber, which was cooled and protected from light. Slides were covered with electrophoresis buffer (0.3 M NaOH, 1 mM EDTA, pH > 13) carefully avoiding air bubbles. The DNA was allowed to unwind (20 min). Thereafter the electrophoresis was started (25 V, 300 mA, […], 30 min). The slides were then washed (2 times 5 min) in neutralization buffer (0.4 M Tris/HCl, pH 7.5), dehydrated and fixed in 100% ethanol (1 min), dried at room temperature overnight and stored at room temperature protected from dust.
Quantitative evaluation of the Comet assays was performed by fluorescence microscopy after DNA staining with ethidium bromide.

[2] = 200 mg/kg body weight oral, female
[3] = 200 mg/kg body weight oral, male
[4] = female, no FPG, 200 mg/kg bw oral, once
[5] = male, no FPG, 200 mg/kg bw oral, once
[6] = 5 ppm inhalation, 5 days, female
[7] = 10 ppm inhalation, 5 days, female
[8] = 10 ppm inhalation, 5 days, male
[9] = 20 ppm inhalation, 5 days, female
[10] = 20 ppm inhalation, 5 days, male
[11] = female, no FPG, 5 ppm inhalation, 5 days
[12] = female, no FPG, 10 ppm inhalation, 5 days
[13] = female, no FPG, 20 ppm inhalation, 5 days
[14] = male, no FPG, 5 ppm inhalation, 5 days
[15] = male, no FPG, 10 ppm inhalation, 5 days
[16] = male, no FPG, 20 ppm inhalation, 5 days

## CCOS(C)(=O)=O [EMS, ethyl methanesulfonate, reference compound]
[1]; [2]
  MN/ 1000 PCE Mean ± SD: 11.8 ± 12.3 MN/ 1000 PCE
  MN/ 1000 PCE Range: 9.0–14.5 MN/ 1000 PCE
  PCE/1000 Erythrozyten Mean ± SD: 563 ± 29 PCE/1000 Erythrozyten
  PCE/NCE quotient (%): 89%
[1]; [3]
  MN/ 1000 PCE Mean ± SD: 14.5 ± 6.0 MN/ 1000 PCE
  MN/ 1000 PCE Range: 3.0–20.0 MN/ 1000 PCE
  PCE/1000 Erythrozyten Mean ± SD: 616 ± 50 PCE/1000 Erythrozyten
  PCE/NCE quotient (%): 101%
[1]; 200 mg/kg body weight, independent of gender
  Micronuclei in PCE: 13.2 ± 4.6 ‰
[1]; female, Wistar Crl:WI (Han), rat, in vivo, 24 h
  Micronuclei in PCE: 11.8 ± 2.3 ‰
[1]; male, Wistar Crl:WI (Han), rat, in vivo, 24 h
  Micronuclei in PCE: 14.5 ± 6.0 ‰
Rat liver cells; 200 mg/kg body weight
  Tail intensity, liver, positive controls of the present study: 17–19%
Rat liver cells; liver cells, female, no FPG, 200 mg/kg
  Increase of the TI vs vehicle control: 28 fold
Rat liver cells; liver cells, male, no FPG, 200 mg/kg
  Increase of the TI vs vehicle control: 27 fold
Rat liver cells; liver cells, no FPG, 200 mg/kg
  Hedgehogs per 100 cells, averaged for both genders: 7.5 per 100 cells
Rat liver cells; [4]
  Hedgehogs/100 cells (mean ± SD): 7 ± 4 /100 cells
  TI (%) (mean ± SD): 16.3 ± 4.49%
Rat liver cells; female, no FPG, 200 mg/kg bw oral, once, 200 mg/kg
  TI (%), mean of medians from 2 slides: 9.1% and 13.6% and 17.5% and 22.4% and 17.8% and 17.3%
Rat liver cells; [5]
  Hedgehogs/100 cells (mean ± SD): 8 ± 2 /100 cells
  TI (%) (mean ± SD): 18.6 ± 5.97%
Rat liver cells; male, no FPG, 200 mg/kg bw oral, once, 200 mg/kg
  TI (%), mean of medians from 2 slides: 18.9% and 17.5% and 29.0% and 10.6% and 19.3% and 16.4%

## C=CN1CCCC1=O [NVP, N-vinylpyrrolidone]
[1]; 5, 10, 20 ppm, male and female rats
  Mean number of micronuclei in PCE, range over groups: 1.4 to 2.9 ‰
[1]; [6]
  MN/ 1000 PCE Mean ± SD: 1.4 ± 0.7 MN/ 1000 PCE
  MN/ 1000 PCE Range: 0.5–2.5 MN/ 1000 PCE
  PCE/1000 Erythrozyten Mean ± SD: 629 ± 18 PCE/1000 Erythrozyten
  PCE/NCE quotient (%): 99%
[1]; 5 ppm inhalation, 5 days, male
  MN/ 1000 PCE Mean ± SD: 2.6 ± 0.9 MN/ 1000 PCE
  MN/ 1000 PCE Range: 1.5–4.0 MN/ 1000 PCE
  PCE/1000 Erythrozyten Mean ± SD: 609 ± 40 PCE/1000 Erythrozyten
  PCE/NCE quotient (%): 100%
[1]; 5 ppm, 10 ppm or 20 ppm
  Increase in micronuclei in the PCE: no significant increase
[1]; [7]
  MN/ 1000 PCE Mean ± SD: 1.7 ± 1.0 MN/ 1000 PCE
  MN/ 1000 PCE Range: 0.5–3.0 MN/ 1000 PCE
  PCE/1000 Erythrozyten Mean ± SD: 612 ± 44 PCE/1000 Erythrozyten
  PCE/NCE quotient (%): 96%
[1]; [8]
  MN/ 1000 PCE Mean ± SD: 2.9 ± 1.9 MN/ 1000 PCE
  MN/ 1000 PCE Range: 1.5–6.5 MN/ 1000 PCE
  PCE/1000 Erythrozyten Mean ± SD: 622 ± 33 PCE/1000 Erythrozyten
  PCE/NCE quotient (%): 102%
[1]; [9]
  MN/ 1000 PCE Mean ± SD: 2.3 ± 0.8 MN/ 1000 PCE
  MN/ 1000 PCE Range: 1.0–3.0 MN/ 1000 PCE
  PCE/1000 Erythrozyten Mean ± SD: 615 ± 48 PCE/1000 Erythrozyten
  PCE/NCE quotient (%): 97%
[1]; [10]
  MN/ 1000 PCE Mean ± SD: 2.0 ± 0.9 MN/ 1000 PCE
  MN/ 1000 PCE Range: 0.5–3.0 MN/ 1000 PCE
  PCE/1000 Erythrozyten Mean ± SD: 553 ± 57 PCE/1000 Erythrozyten
  PCE/NCE quotient (%): 90%
[1]; after exposure to NVP
  Micronuclei in normochromatic erythrocytes (NCE): no micronuclei were observed
[1]; high-dose (20 ppm) males vs vehicle control
  Decrease of the ratio of PCE to NCE: 10%
Rat liver cells; NVP-treated liver cells, with or without FPG
  Hedgehogs: 1–5%
Rat liver cells; [11]
  Hedgehogs/100 cells (mean ± SD): 3 ± 3 /100 cells
  TI (%) (mean ± SD): 1.0 ± 0.40%
  TI (%), mean of medians from 2 slides: 0.9% and 1.1% and 1.7% and 0.8% and 0.6%
Rat liver cells; [12]
  Hedgehogs/100 cells (mean ± SD): 4 ± 4 /100 cells
  TI (%) (mean ± SD): 0.9 ± 0.48%
  TI (%), mean of medians from 2 slides: 1.3% and 0.6% and 0.5% and 1.4% and 0.3%
Rat liver cells; [13]
  Hedgehogs/100 cells (mean ± SD): 3 ± 2 /100 cells
  TI (%) (mean ± SD): 0.7 ± 0.34%
Rat liver cells; [14]
  Hedgehogs/100 cells (mean ± SD): 3 ± 2 /100 cells
  TI (%) (mean ± SD): 0.9 ± 0.22%
  TI (%), mean of medians from 2 slides: 1.2% and 0.9% and 0.6% and 0.7% and 1.1%
Rat liver cells; [15]
  Hedgehogs/100 cells (mean ± SD): 3 ± 1 /100 cells
  TI (%) (mean ± SD): 1.0 ± 0.68%
  TI (%), mean of medians from 2 slides: 0.7% and 2.4% and 1.0% and 0.6%
Rat liver cells; [16]
  Hedgehogs/100 cells (mean ± SD): 3 ± 1 /100 cells
  TI (%) (mean ± SD): 0.7 ± 0.34%
  TI (%), mean of medians from 2 slides: 1.2% and 0.8% and 0.5% and 1.0% and 0.3%
